# According to ChEMBL document CHEMBL2413072, “Synthesis and in vitro anticancer studies of novel C-2 arylidene congeners of lantadenes” (2013):
# Columns and labels:
# Assay type in all cases: functional
# RPMI-8226 [1] = assay: Growth inhibition of human RPMI8226 cells assessed as cell growth at 10^-8 M by sulforhodamine B assay; settings: read-out: Activity
# RPMI-8226 [2] = assay: Growth inhibition of human RPMI8226 cells assessed as cell growth at 10^-7 M by sulforhodamine B assay; settings: read-out: Activity
# HT-29 [3] = assay: Growth inhibition of human HT-29 cells assessed as cell growth at 10^-8 M by sulforhodamine B assay; settings: read-out: Activity
# IGROV-1 [4] = assay: Growth inhibition of human IGROV1 cells assessed as cell growth at 10^-7 M by sulforhodamine B assay; settings: read-out: Activity
# HOP-62 [5] = assay: Growth inhibition of human HOP62 cells assessed as cell growth at 10^-7 M by sulforhodamine B assay; settings: read-out: Activity
# NCI-H322M = assay: Growth inhibition of human NCI-H322M cells assessed as cell growth at 10^-4 M by sulforhodamine B assay; settings: read-out: Activity
# RXF 393 = assay: Growth inhibition of human RXF393 cells by sulforhodamine B assay
# SK-MEL-5 = assay: Growth inhibition of human SK-MEL-5 cells assessed as cell growth at 10^-7 M by sulforhodamine B assay; settings: read-out: Activity
# OVCAR-4 [6] = assay: Growth inhibition of human OVCAR4 cells assessed as cell growth at 10^-4 M by sulforhodamine B assay; settings: read-out: Activity
# OVCAR-3 = assay: Growth inhibition of human OVCAR3 cells assessed as cell growth at 10^-7 M by sulforhodamine B assay; settings: read-out: Activity
# ACHN = assay: Growth inhibition of human ACHN cells assessed as cell growth at 10^-7 M by sulforhodamine B assay; settings: read-out: Activity
# CAKI-1 = assay: Growth inhibition of human CAKI-1 cells assessed as cell growth at 10^-8 M by sulforhodamine B assay; settings: read-out: Activity
# NCI-H226 = assay: Growth inhibition of human NCI-H226 cells assessed as cell growth at 10^-7 M by sulforhodamine B assay; settings: read-out: Activity
# SNB-75 = assay: Growth inhibition of human SNB75 cells by sulforhodamine B assay
# UO-31 = assay: Growth inhibition of human UO31 cells assessed as cell growth at 10^-7 M by sulforhodamine B assay; settings: read-out: Activity
# UACC-62 = assay: Growth inhibition of human UACC62 cells assessed as cell growth at 10^-4 M by sulforhodamine B assay; settings: read-out: Activity
# U-251 = assay: Growth inhibition of human U251 cells by sulforhodamine B assay
# SNB-19 = assay: Growth inhibition of human SNB19 cells assessed as cell growth at 10^-7 M by sulforhodamine B assay; settings: read-out: Activity
# Malme-3M = assay: Growth inhibition of human MALME-3M cells assessed as cell growth at 10^-7 M by sulforhodamine B assay; settings: read-out: Activity
# IGROV-1 [7] = assay: Growth inhibition of human IGROV1 cells assessed as cell growth at 10^-6 M by sulforhodamine B assay; settings: read-out: Activity
# SK-MEL-28 = assay: Growth inhibition of human SK-MEL-28 cells assessed as cell growth at 10^-7 M by sulforhodamine B assay; settings: read-out: Activity
# MDA-MB-435 = assay: Growth inhibition of human MDA-MB-435 cells assessed as cell growth at 10^-6 M by sulforhodamine B assay; settings: read-out: Activity
# LOX IMVI = assay: Growth inhibition of human LOXIMVI cells assessed as cell growth at 10^-6 M by sulforhodamine B assay; settings: read-out: Activity
# HT-29 [8] = assay: Growth inhibition of human HT-29 cells assessed as cell growth at 10^-6 M by sulforhodamine B assay; settings: read-out: Activity
# PC-3 = assay: Growth inhibition of human PC3 cells by sulforhodamine B assay
# NCI-H460 = assay: Growth inhibition of human NCI-H460 cells by sulforhodamine B assay
# HL-60(TB) = assay: Growth inhibition of human HL-60(TB) cells assessed as cell growth at 10^-6 M by sulforhodamine B assay; settings: read-out: Activity
# TK-10 = assay: Growth inhibition of human TK10 cells assessed as cell growth at 10^-8 M by sulforhodamine B assay; settings: read-out: Activity
# SF-295 = assay: Growth inhibition of human SF295 cells assessed as cell growth at 10^-8 M by sulforhodamine B assay; settings: read-out: Activity
# MDA-MB-231 [9] = assay: Growth inhibition of human MDA-MB-231 cells assessed as cell growth at 10^-7 M by sulforhodamine B assay; settings: read-out: Activity
# MDA-MB-231 [10] = assay: Growth inhibition of human MDA-MB-231 cells assessed as cell growth at 10^-6 M by sulforhodamine B assay; settings: read-out: Activity
# CCRF-CEM = assay: Growth inhibition of human CCRF-CEM cells assessed as cell growth at 10^-6 M by sulforhodamine B assay; settings: read-out: Activity
# KM12 = assay: Growth inhibition of human KM12 cells by sulforhodamine B assay
# MOLT-4 = assay: Growth inhibition of human MOLT4 cells assessed as cell growth at 10^-4 M by sulforhodamine B assay; settings: read-out: Activity
# SF-539 = assay: Growth inhibition of human SF539 cells assessed as cell growth at 10^-8 M by sulforhodamine B assay; settings: read-out: Activity
# OVCAR-4 [11] = assay: Growth inhibition of human OVCAR4 cells assessed as cell growth at 10^-6 M by sulforhodamine B assay; settings: read-out: Activity
# HCT-116 = assay: Growth inhibition of human HCT116 cells assessed as cell growth at 10^-8 M by sulforhodamine B assay; settings: read-out: Activity
# DU-145 = assay: Growth inhibition of human DU145 cells assessed as cell growth at 10^-4 M by sulforhodamine B assay; settings: read-out: Activity
# K562 = assay: Growth inhibition of human K562 cells assessed as cell growth at 10^-6 M by sulforhodamine B assay; settings: read-out: Activity
# HOP-62 [12] = assay: Growth inhibition of human HOP62 cells assessed as cell growth at 10^-8 M by sulforhodamine B assay; settings: read-out: Activity
# RPMI-8226 [13] = assay: Growth inhibition of human RPMI8226 cells assessed as cell growth at 10^-6 M by sulforhodamine B assay; settings: read-out: Activity
# OVCAR-5 = assay: Growth inhibition of human OVCAR5 cells assessed as cell growth at 10^-7 M by sulforhodamine B assay; settings: read-out: Activity
# [14] = read-out: LC50 (the source's name)
# [15] = read-out: pLC50 (the source's name) (converted)
smiles,measurement,setting,value
CC1(C)C[C@@H](O)[C@]2(C(=O)O)CC[C@]3(C)C(=CC[C@@H]4[C@@]5(C)C/C(=C\C=C\c6ccccc6)C(=O)C(C)(C)[C@@H]5CC[C@]43C)[C@@H]2C1,growth at 0.01 µM,RPMI-8226 [1],98%
same,growth at 0.1 µM,RPMI-8226 [2],99%
same,growth at 0.01 µM,HT-29 [3],104%
same,growth at 0.1 µM,IGROV-1 [4],112%
same,growth at 0.1 µM,HOP-62 [5],91%
same,growth at 100 µM,NCI-H322M,-78%
same,GI50,RXF 393; read-out: GI50,2.65 µM
same,CC50,RXF 393; [14],29.7 µM
same,TGI,RXF 393; read-out: TGI,7.65 µM
same,GI50,RXF 393; read-out: pGI50 (converted),2.63 µM
same,CC50,RXF 393; [15],29.5 µM
same,TGI,RXF 393; read-out: pTGI (converted),7.59 µM
same,growth at 0.1 µM,SK-MEL-5,95%
same,growth at 100 µM,OVCAR-4 [6],-97%
same,growth at 0.1 µM,OVCAR-3,104%
same,growth at 0.1 µM,ACHN,98%
same,growth at 0.01 µM,CAKI-1,94%
same,growth at 0.1 µM,NCI-H226,92%
same,GI50,SNB-75; read-out: GI50,4.27 µM
same,CC50,SNB-75; [14],63.7 µM
same,TGI,SNB-75; read-out: TGI,20.9 µM
same,GI50,SNB-75; read-out: pGI50 (converted),4.27 µM
same,CC50,SNB-75; [15],63.1 µM
same,TGI,SNB-75; read-out: pTGI (converted),20.9 µM
same,growth at 0.1 µM,UO-31,94%
same,growth at 100 µM,UACC-62,-96%
same,GI50,U-251; read-out: GI50,2.58 µM
same,CC50,U-251; [14],43.2 µM
same,TGI,U-251; read-out: TGI,10.1 µM
same,GI50,U-251; read-out: pGI50 (converted),2.57 µM
same,CC50,U-251; [15],43.7 µM
same,TGI,U-251; read-out: pTGI (converted),10.2 µM
same,growth at 0.1 µM,SNB-19,89%
same,growth at 0.1 µM,Malme-3M,93%
same,growth at 1 µM,IGROV-1 [7],113%
same,growth at 0.1 µM,SK-MEL-28,102%
same,growth at 1 µM,MDA-MB-435,95%
same,growth at 1 µM,LOX IMVI,101%
same,growth at 1 µM,HT-29 [8],99%
same,GI50,PC-3; read-out: GI50,3.03 µM
same,CC50,PC-3; [14],63.7 µM
same,TGI,PC-3; read-out: TGI,16.3 µM
same,GI50,PC-3; read-out: pGI50 (converted),3.02 µM
same,CC50,PC-3; [15],63.1 µM
same,TGI,PC-3; read-out: pTGI (converted),16.2 µM
same,GI50,NCI-H460; read-out: GI50,2.67 µM
same,LC50,NCI-H460; read-out: LC50,44.1 µM
same,TGI,NCI-H460; read-out: TGI,7.6 µM
same,GI50,NCI-H460; read-out: pGI50 (converted),2.69 µM
same,LC50,NCI-H460; read-out: pLC50 (converted),43.7 µM
same,TGI,NCI-H460; read-out: pTGI (converted),7.59 µM
same,growth at 1 µM,HL-60(TB),112%
same,growth at 0.01 µM,TK-10,98%
same,growth at 0.01 µM,SF-295,99%
same,growth at 0.1 µM,MDA-MB-231 [9],102%
same,growth at 1 µM,MDA-MB-231 [10],92%
same,growth at 1 µM,CCRF-CEM,96%
same,GI50,KM12; read-out: GI50,3.01 µM
same,LC50 (50% net cell kill),KM12; read-out: LC50,47.2 µM
same,TGI,KM12; read-out: TGI,11.2 µM
same,GI50,KM12; read-out: pGI50 (converted),3.02 µM
same,LC50 (50% net cell kill),KM12; read-out: pLC50 (converted),46.8 µM
same,TGI,KM12; read-out: pTGI (converted),11.2 µM
same,growth at 100 µM,MOLT-4,-28%
same,growth at 0.01 µM,SF-539,93%
same,growth at 1 µM,OVCAR-4 [11],89%
same,growth at 0.01 µM,HCT-116,100%
same,growth at 100 µM,DU-145,-92%
same,growth at 1 µM,K562,98%
same,growth at 0.01 µM,HOP-62 [12],93%
same,growth at 1 µM,RPMI-8226 [13],92%
same,growth at 0.1 µM,OVCAR-5,92%
